Reference: patent US11046716B2, “Beta-lactamase inhibitors” (priority 2015, dated 2021)

Legend:
[1] = test system: K. pneumoniae expressing the class A carbapenemase KPC-2 and the class B carbapenemase VIM-4; test: Broth microdilution MIC assay with meropenem, K. pneumoniae KPC-2 and VIM-4; format: cell-based; details: Fixed Mero (meropenem) 4 μg/mL; K. p. A-1797 KPC-2 VIM-4
Summary of the method: (§1)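 Test compounds in 2-fold dilutions (16 to 0.125 μg/mL final) in CAMHB were combined with a β-lactam at a static 4 μg/ml final. Plates were inoculated per CLSI broth microdilution with the β-lactamase-producing strain (pre-grown 3-5 h) and incubated 16-20 h at 37° C. MIC of test compound was read visually.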

VIM-2 = target: T1, VIM-2 (Escherichia coli, UniProt Q5U7L7); test: β-lactamase enzyme inhibition assay, VIM-2 (nitrocefin substrate); format: biochemical; details: Class B; nitrocefin substrate, 486 nm; read-out: VIM-2
T1 construct: made in house; host or cells: E. coli BL21(DE3)
Summary of the method: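 Purified VIM-2 preincubated with inhibitor for 15 min at 37° C, then nitrocefin (100 μM final) added and absorbance at 486 nm followed for 10 min. Maximum hydrolysis rates compared with inhibitor-free controls; IC50 fitted from percent inhibition across inhibitor concentrations.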

[2] = test system: P. aeruginosa expressing the Class B carbapenemase VIM-2; test: Broth microdilution MIC assay with meropenem, P. aeruginosa VIM-2; format: cell-based; details: Fixed Mero (meropenem) 4 μg/mL; P. aerug. 2775 VIM-2
Summary of the method: as §1

[3] = test system: K. pneumoniae producing the Class D carbapenemase OXA-48; test: Broth microdilution MIC assay with meropenem, K. pneumoniae OXA-48; format: cell-based; details: Fixed Mero (meropenem) 4 μg/mL; K. p. 11978 OXA-48
Summary of the method: as §1

OXA-48 = OXA-48 (UniProt Q6XEC0); test: β-lactamase enzyme inhibition assay, Class D oxacillinase; format: biochemical; details: read-out: OXA-48
[4] = test system: E. cloacae expressing the Class C P99; test: Broth microdilution MIC assay with ceftazidime, E. cloacae P99; format: cell-based; details: Fixed CAZ (ceftazidime) 4 μg/mL; E. cl. 144200 p99 AmpC
Summary of the method: as §1

[5] = test system: K. pneumoniae expressing the Class A carbapenemase KPC-2; test: Broth microdilution MIC assay with meropenem, K. pneumoniae KPC-2; format: cell-based; details: Fixed Mero (meropenem) 4 μg/mL; K. p. 156319 KPC-3
Summary of the method: as §1

[6] = test system: E. coli expressing the Class A Extended Spectrum Beta-Lactamase (ESBL) CTX-M-15; test: Broth microdilution MIC assay with ceftazidime, E. coli CTX-M-15; format: cell-based; details: Fixed CAZ (ceftazidime) 4 μg/mL; E. coli ESBL4 CTX-M-15
Summary of the method: as §1

KPC-2 = target: T2, KPC-2 (Klebsiella pneumoniae, UniProt Q9F663); test: β-lactamase enzyme inhibition assay, KPC-2 (imipenem substrate); format: biochemical; details: Class A; imipenem substrate, 300 nm; read-out: KPC-2
T2 construct: made in house; host or cells: E. coli BL21(DE3)
Summary of the method: (§2)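 Native untagged β-lactamases were expressed in E. coli BL21(DE3), then purified by cation exchange and gel filtration. Enzyme was preincubated with inhibitor for 15 min at 37 °C before substrate was added. Imipenem (A300) served KPC-2 and cefotaxime (A260) served SHV-5. IC50 was taken from initial hydrolysis rates relative to no-inhibitor controls.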

AmpC = target: T3, AmpC (Enterobacter cloacae, UniProt P05364); test: β-lactamase enzyme inhibition assay, p99 AmpC (nitrocefin substrate); format: biochemical
T3 construct: made in house; host or cells: E. coli BL21(DE3)
Summary of the method: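 Native untagged β-lactamases were expressed in E. coli BL21(DE3), then purified by cation exchange and gel filtration. Enzyme was preincubated with inhibitor for 15 min at 37 °C before substrate was added. IC50 was taken from initial hydrolysis rates relative to no-inhibitor controls.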

SHV-5 = target: T4, SHV-5 (Klebsiella pneumoniae, UniProt P0A3M1); test: β-lactamase enzyme inhibition assay, SHV-5 (cefotaxime substrate); format: biochemical
T4 construct: made in house; host or cells: E. coli BL21(DE3)
Summary of the method: as §2

T4 sequence (P0A3M1 22-286): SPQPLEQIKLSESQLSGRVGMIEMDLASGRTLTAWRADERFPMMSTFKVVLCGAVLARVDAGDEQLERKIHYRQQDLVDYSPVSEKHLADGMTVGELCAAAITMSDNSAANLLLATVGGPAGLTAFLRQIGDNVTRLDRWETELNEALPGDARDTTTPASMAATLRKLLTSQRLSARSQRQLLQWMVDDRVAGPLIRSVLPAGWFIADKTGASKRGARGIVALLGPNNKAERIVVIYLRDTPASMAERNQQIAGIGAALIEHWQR
T2 sequence (Q9F663 25-293, looked up): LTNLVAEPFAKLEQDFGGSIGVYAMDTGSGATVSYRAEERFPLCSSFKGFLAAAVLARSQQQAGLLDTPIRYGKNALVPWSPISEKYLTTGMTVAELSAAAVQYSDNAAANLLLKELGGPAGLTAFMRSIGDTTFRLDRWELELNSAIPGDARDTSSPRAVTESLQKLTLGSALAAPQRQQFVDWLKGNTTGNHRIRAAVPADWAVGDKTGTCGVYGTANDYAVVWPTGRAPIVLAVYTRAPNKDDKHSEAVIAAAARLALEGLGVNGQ
T3 sequence (P05364 21-381): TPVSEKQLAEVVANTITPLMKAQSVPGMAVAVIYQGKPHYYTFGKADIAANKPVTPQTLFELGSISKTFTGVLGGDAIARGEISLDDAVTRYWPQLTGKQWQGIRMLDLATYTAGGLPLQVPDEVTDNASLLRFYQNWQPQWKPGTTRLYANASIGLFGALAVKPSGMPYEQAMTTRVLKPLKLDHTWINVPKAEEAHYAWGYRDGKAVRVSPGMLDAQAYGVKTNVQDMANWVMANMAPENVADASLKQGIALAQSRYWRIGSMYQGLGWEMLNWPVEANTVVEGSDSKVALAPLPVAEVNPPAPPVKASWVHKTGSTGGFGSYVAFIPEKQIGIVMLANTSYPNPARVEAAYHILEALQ

Row | Structure (SMILES) | MIC (μg/mL) of Exemplary Compounds in presence of fixed β-lactams: K. p. A-1797 KPC-2 VIM-4 [1] | IC50 (VIM-2) [nM] | MIC (μg/mL) of Exemplary Compounds in presence of fixed β-lactams: P. aerug. 2775 VIM-2 [2] | MIC (μg/mL) of Exemplary Compounds in presence of fixed β-lactams: K. p. 11978 OXA-48 [3] | IC50 (OXA-48) [nM] | MIC (μg/mL) of Exemplary Compounds in presence of fixed β-lactams: E. cl. 144200 p99 AmpC [4] | MIC (μg/mL) of Exemplary Compounds in presence of fixed β-lactams: K. p. 156319 KPC-3 [5] | MIC (μg/mL) of Exemplary Compounds in presence of fixed β-lactams: E. coli ESBL4 CTX-M-15 [6] | IC50 (KPC-2) [nM] | IC50 (AmpC) [nM] | IC50 (SHV-5) [nM]
1 | CNCc1c(CO)nnn1CC(=O)N[C@H]1Cc2cccc(C(=O)O)c2OB1O [Example 15, (R)-2-hydroxy-3-(2-(4-(hydroxymethyl)-5-((methylamino)methyl)-1H-1,2,3-triazol-1-yl)acetamido)-3,4-dihydro-2H-benzo[e][1,2]oxaborinine-8-carboxylic acid] | B (B represents an MIC between 1 and 16 μg/mL inclusive) | < 100 | C (C represents an MIC of <1 μg/mL) | B (B represents an MIC between 1 and 16 μg/mL inclusive) | 100 to 1000 | C (C represents an MIC of <1 μg/mL) | B (B represents an MIC between 1 and 16 μg/mL inclusive) | C (C represents an MIC of <1 μg/mL) | 100 to 1000 | < 100 | 100 to 1000
2 | NCCOCc1cn(CC(=O)N[C@H]2Cc3cccc(C(=O)O)c3OB2O)nn1 [Example 34, (R)-3-(2-(4-((2-aminoethoxy)methyl)-1H-1,2,3-triazol-1-yl)acetamido)-2-hydroxy-3,4-dihydro-2H-benzo[e][1,2]oxaborinine-8-carboxylic acid] | B (B represents an MIC between 1 and 16 μg/mL inclusive) | 100 to 1000 | C (C represents an MIC of <1 μg/mL) | B (B represents an MIC between 1 and 16 μg/mL inclusive) | 1000 to 10000 | C (C represents an MIC of <1 μg/mL) | B (B represents an MIC between 1 and 16 μg/mL inclusive) | C (C represents an MIC of <1 μg/mL) | < 100 | < 100 | < 100
3 | CC(C)NCCn1nnnc1CC(=O)N[C@H]1Cc2cccc(C(=O)O)c2OB1O [Example 52, (R)-2-hydroxy-3-(2-(1-(2-(isopropylamino)ethyl)-1H-tetrazol-5-yl)acetamido)-3,4-dihydro-2H-benzo[e][1,2]oxaborinine-8-carboxylic acid] | B (B represents an MIC between 1 and 16 μg/mL inclusive) | < 100 | C (C represents an MIC of <1 μg/mL) | B (B represents an MIC between 1 and 16 μg/mL inclusive) | 1000 to 10000 | C (C represents an MIC of <1 μg/mL) | C (C represents an MIC of <1 μg/mL) | C (C represents an MIC of <1 μg/mL) | < 100 | < 100 | < 100
